Test results from publication PMC2577671, “Evaluation of Dimebon in cellular model of Huntington's disease” (Molecular Neurodegeneration, 2008).

What was measured:
Assay in all cases: biochemical
Set-up in all cases: MDS Pharma Lead Profiling screen, binding assays, per cent inhibition, duplicate
Muscarinic M1 = target: T1, Muscarinic M1 (Homo sapiens, UniProt P11229)
T1 construct: gene CHRM1
Experimental: (§1) The activity of Dimebon against selected set of biochemical targets was performed by MDS Pharma Services . The Dimebon was provided to MDS Pharma as dry powder, dissolved in DMSO and tested in 10 μM concentrations. The standard Lead Profiling + CYP450 screen was performed according to MDS Pharma specifications with additional custom-chosen targets added to the screen as indicated. To further understand potential mechanisms responsible for clinical effects of Dimebon, we evaluated Dimebon against a set of selected biochemical targets. Dimebon evaluation was performed by MDS Pharma Services . The standard Lead Profiling + CYP450 screen was performed with additional custom-selected targets added to the screen. The results of the screen obtained at 10 μM of Dimebon are provided as Additional File 3. […] Low affinity (50–60% inhibition) interactions were also observed for CYP450, 2C19 receptor, voltage-gated L-type Ca^2+ channel, Dopamine D4.2 receptor, and Serotonin 5-HT1 receptor. […] Supplementary file 1750-1326-3-15-S3.pdf: Additional file 3 The results of Dimebon screening against a selected set of biochemical targets. The complete results obtained by MDS Pharma with a selected list of biochemical targets using 10 μM of Dimebon as a probe. The Cat numbers refer to the MDS Pharma Services assay specification. The receptors and species are listed. Dimebon was tested at 10 μM concentratio in duplicate. The % inhibition by Dimebon is shown numerically and graphically for each receptor. Significant targets (defined as % inhibition > 50%) are highlighted in yellow. Click here for file

Serotonin 5-HT6 receptor = target: T2, Serotonin 5-HT6 receptor (Homo sapiens, UniProt P50406)
T2 construct: gene HTR6
Experimental: as §1

α1B-Adrenergic receptor = target: T3, α1B-Adrenergic receptor (Rattus norvegicus, UniProt P15823)
T3 construct: gene Adra1b
Experimental: as §1

Neuropeptide Y Y1 = target: T4, Neuropeptide Y Y1 (Homo sapiens, UniProt P25929)
T4 construct: gene NPY1R
Experimental: as §1

Sigma 2 = target: T5, Sigma 2 (Rattus norvegicus, UniProt Q5U3Y7)
T5 construct: gene Tmem97
Experimental: as §1

Dopamine D1 = target: T6, Dopamine D1 (Homo sapiens, UniProt P21728)
T6 construct: gene DRD1
Experimental: as §1

Dopamine D2S receptor = target: T7, Dopamine D2S receptor (Homo sapiens, UniProt P14416)
T7 construct: gene DRD2; D2S
Experimental: as §1

Serotonin 5-HT3 = target: T8, Serotonin 5-HT3 (Homo sapiens, UniProt P46098)
T8 construct: gene HTR3A
Experimental: as §1

Adenosine A2A = target: T9, Adenosine A2A (Homo sapiens, UniProt P29274)
T9 construct: gene ADORA2A
Experimental: as §1

Sigma 1 = target: T10, Sigma 1 (Homo sapiens, UniProt Q99720)
T10 construct: gene SIGMAR1
Experimental: as §1

Neuropeptide Y Y2 = target: T11, Neuropeptide Y Y2 (Homo sapiens, UniProt P49146)
T11 construct: gene NPY2R
Experimental: as §1

Opiate kappa (OP2, KOP) = target: T12, Opiate kappa (OP2, KOP) (Homo sapiens, UniProt P41145)
T12 construct: gene OPRK1
Experimental: as §1

Melatonin MT1 = target: T13, Melatonin MT1 (Homo sapiens, UniProt P48039)
T13 construct: gene MTNR1A
Experimental: as §1

Histamine H2 receptor = target: T14, Histamine H2 receptor (Homo sapiens, UniProt P25021)
T14 construct: gene HRH2
Experimental: as §1

Opiate mu (OP3, MOP) = target: T15, Opiate mu (OP3, MOP) (Homo sapiens, UniProt P35372)
T15 construct: gene OPRM1
Experimental: as §1

Dopamine D3 = target: T16, Dopamine D3 (Homo sapiens, UniProt P35462)
T16 construct: gene DRD3
Experimental: as §1

α2A-Adrenergic receptor = target: T17, α2A-Adrenergic receptor (Homo sapiens, UniProt P08913)
T17 construct: gene ADRA2A
Experimental: as §1

[1] = target: T18, Serotonin 5-HT5A receptor (Homo sapiens, UniProt P47898)
T18 construct: gene HTR5A
Experimental: as §1

[2] = target: T19, Transporter, Norepinephrine (NET) (Homo sapiens, UniProt P23975)
T19 construct: gene SLC6A2
Experimental: as §1

Tachykinin NK1 = target: T20, Tachykinin NK1 (Homo sapiens, UniProt P25103)
T20 construct: gene TACR1
Experimental: as §1

Adenosine A3 = target: T21, Adenosine A3 (Homo sapiens, UniProt P0DMS8)
T21 construct: gene ADORA3
Experimental: as §1

T2 sequence (P50406 whole entry): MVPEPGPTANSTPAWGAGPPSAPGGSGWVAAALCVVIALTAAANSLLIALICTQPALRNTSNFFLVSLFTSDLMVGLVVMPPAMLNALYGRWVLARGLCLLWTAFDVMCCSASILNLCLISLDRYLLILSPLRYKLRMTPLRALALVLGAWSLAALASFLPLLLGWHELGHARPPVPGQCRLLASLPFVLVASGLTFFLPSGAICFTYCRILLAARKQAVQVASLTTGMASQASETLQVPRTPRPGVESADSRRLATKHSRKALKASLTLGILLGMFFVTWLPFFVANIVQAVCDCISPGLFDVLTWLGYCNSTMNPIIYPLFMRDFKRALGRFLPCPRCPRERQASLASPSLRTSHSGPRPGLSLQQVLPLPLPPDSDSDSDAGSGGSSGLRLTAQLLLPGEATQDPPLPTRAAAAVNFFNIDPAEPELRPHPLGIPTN
T17 sequence (P08913 whole entry): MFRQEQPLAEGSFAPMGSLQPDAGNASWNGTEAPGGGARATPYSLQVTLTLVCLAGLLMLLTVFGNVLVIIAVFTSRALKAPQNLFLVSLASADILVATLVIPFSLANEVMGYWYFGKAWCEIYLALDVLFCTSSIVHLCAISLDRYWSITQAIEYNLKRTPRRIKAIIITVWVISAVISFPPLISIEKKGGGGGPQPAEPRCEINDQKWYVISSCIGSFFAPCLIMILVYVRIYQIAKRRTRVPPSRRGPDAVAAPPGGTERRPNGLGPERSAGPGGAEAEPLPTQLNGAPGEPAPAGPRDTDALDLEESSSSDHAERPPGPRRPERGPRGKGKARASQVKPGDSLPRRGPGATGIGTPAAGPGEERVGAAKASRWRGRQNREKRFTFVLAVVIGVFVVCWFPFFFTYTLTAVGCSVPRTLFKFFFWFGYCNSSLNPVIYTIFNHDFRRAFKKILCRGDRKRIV
T14 sequence (P25021 whole entry): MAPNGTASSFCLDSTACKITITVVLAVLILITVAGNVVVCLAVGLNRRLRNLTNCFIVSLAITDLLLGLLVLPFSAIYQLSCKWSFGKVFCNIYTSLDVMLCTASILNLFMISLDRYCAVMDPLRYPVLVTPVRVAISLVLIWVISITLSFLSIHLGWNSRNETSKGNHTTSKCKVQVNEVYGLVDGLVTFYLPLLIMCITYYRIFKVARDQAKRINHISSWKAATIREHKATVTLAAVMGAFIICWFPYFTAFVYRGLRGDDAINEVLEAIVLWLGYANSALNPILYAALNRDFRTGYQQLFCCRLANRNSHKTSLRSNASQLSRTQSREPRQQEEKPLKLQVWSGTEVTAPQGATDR
T18 sequence (P47898 whole entry): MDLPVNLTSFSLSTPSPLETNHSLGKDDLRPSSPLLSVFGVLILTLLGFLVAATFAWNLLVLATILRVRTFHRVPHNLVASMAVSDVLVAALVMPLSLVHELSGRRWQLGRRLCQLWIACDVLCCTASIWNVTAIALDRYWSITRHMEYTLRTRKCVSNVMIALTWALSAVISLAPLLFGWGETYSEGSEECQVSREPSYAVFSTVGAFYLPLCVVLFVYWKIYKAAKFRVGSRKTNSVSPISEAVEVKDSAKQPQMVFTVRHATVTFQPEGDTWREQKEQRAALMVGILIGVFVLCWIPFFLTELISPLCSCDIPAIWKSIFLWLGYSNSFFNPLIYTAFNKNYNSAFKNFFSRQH
T9 sequence (P29274 whole entry): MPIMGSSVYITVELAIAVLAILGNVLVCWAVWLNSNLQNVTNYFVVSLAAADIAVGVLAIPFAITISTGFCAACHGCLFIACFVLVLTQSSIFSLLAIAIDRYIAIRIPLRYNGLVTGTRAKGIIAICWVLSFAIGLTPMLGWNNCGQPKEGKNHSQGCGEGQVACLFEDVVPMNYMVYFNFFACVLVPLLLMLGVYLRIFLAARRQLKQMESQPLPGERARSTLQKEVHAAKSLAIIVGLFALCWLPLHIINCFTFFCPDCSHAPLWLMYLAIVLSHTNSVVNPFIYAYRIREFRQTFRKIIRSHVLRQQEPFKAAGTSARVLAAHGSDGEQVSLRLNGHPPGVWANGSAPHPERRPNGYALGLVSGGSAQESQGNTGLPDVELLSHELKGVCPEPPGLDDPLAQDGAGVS
T16 sequence (P35462 whole entry): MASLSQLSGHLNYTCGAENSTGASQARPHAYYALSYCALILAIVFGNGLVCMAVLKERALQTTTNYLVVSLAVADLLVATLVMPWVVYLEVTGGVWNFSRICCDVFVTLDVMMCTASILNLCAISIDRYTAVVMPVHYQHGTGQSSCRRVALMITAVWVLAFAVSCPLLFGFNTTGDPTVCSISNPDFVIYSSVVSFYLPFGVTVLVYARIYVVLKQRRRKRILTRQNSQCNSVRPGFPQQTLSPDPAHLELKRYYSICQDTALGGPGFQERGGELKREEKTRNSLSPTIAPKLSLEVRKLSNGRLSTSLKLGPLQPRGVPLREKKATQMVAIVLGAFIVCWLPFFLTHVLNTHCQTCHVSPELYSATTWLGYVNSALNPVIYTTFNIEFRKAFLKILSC
T3 sequence (P15823 whole entry): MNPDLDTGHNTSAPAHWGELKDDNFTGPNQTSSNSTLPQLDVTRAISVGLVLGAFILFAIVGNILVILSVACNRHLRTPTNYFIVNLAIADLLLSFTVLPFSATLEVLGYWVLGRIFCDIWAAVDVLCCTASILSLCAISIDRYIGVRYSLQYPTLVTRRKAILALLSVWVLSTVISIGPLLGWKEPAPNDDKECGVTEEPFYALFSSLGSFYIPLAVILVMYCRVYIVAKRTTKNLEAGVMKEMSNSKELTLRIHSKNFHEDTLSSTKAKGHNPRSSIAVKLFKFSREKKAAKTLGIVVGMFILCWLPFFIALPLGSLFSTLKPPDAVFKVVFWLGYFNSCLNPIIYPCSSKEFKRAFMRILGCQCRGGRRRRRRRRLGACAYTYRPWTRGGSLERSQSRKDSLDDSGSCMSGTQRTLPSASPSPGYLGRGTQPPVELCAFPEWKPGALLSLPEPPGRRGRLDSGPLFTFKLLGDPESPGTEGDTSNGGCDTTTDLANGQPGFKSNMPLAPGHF
T21 sequence (P0DMS8 whole entry): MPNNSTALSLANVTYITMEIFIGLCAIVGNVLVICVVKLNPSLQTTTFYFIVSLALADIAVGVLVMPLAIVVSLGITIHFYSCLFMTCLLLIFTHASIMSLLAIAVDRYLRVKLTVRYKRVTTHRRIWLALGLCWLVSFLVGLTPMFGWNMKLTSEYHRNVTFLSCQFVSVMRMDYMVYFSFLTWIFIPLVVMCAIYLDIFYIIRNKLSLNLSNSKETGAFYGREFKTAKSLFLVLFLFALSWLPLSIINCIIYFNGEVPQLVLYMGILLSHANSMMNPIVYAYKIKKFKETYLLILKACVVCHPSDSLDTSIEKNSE
T6 sequence (P21728 whole entry): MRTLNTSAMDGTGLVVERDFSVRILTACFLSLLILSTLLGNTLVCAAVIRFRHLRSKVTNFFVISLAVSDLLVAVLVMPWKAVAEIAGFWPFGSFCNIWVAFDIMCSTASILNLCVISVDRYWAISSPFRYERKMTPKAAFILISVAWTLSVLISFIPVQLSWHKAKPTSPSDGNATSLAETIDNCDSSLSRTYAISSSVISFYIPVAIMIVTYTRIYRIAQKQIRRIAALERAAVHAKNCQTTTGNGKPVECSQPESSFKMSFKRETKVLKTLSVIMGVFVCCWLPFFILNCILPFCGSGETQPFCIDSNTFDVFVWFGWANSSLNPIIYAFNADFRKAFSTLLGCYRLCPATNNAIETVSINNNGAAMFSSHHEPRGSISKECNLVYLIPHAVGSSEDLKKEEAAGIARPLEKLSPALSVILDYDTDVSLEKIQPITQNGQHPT
T7 sequence (P14416 1-414 isoform P14416-2): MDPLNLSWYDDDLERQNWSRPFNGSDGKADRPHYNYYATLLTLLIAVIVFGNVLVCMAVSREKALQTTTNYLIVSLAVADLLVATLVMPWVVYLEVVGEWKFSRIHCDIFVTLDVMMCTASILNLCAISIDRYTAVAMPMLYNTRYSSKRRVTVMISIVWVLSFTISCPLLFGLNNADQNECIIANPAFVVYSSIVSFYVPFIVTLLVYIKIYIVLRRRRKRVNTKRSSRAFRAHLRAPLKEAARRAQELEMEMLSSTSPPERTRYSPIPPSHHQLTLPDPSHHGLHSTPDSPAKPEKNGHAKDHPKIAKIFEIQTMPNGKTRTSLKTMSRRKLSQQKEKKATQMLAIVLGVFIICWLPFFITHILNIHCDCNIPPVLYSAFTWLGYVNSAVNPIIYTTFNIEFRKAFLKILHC
T1 sequence (P11229 whole entry): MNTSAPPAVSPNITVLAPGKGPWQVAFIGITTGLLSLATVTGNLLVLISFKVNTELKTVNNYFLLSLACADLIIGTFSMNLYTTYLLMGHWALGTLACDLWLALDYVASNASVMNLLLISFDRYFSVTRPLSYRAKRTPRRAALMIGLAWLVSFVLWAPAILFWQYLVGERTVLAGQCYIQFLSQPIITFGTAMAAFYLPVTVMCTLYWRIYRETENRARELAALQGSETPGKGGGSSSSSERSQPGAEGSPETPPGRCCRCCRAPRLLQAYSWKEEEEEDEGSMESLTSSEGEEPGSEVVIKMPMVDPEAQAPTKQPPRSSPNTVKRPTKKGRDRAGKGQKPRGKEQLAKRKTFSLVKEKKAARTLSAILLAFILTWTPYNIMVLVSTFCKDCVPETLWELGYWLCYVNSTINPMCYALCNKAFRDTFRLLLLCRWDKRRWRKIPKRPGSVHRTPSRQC
T5 sequence (Q5U3Y7 whole entry): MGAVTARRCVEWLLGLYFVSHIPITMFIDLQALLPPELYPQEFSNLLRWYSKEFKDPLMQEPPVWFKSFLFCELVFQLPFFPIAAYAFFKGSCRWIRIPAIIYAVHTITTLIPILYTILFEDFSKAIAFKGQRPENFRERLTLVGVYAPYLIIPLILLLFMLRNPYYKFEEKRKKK

## Cc1ccc2c(c1)c1c(n2CCc2ccc(C)nc2)CCN(C)C1 [Dimebon, 2,3,4,5-Tetrahydro-2,8-dimethyl-5-(2-(6-methyl-3-pyridyl)ethyl)-1H-pyrido(4,3-b)indole]
Muscarinic M1
  inhibition at 10 µM: 9%
Serotonin 5-HT6 receptor
  inhibition at 10 µM: 101%
α1B-Adrenergic receptor
  inhibition at 10 µM: 100%
Neuropeptide Y Y1
  inhibition at 10 µM: 4%
Sigma 2
  inhibition at 10 µM: 22%
Dopamine D1
  inhibition at 10 µM: 70%
Dopamine D2S receptor
  inhibition at 10 µM: 83%
Serotonin 5-HT3
  inhibition at 10 µM: -7%
Adenosine A2A
  inhibition at 10 µM: -3%
Sigma 1
  inhibition at 10 µM: 28%
Neuropeptide Y Y2
  inhibition at 10 µM: -5%
Opiate kappa (OP2, KOP)
  inhibition at 10 µM: 16%
Melatonin MT1
  inhibition at 10 µM: 3%
Histamine H2 receptor
  inhibition at 10 µM: 96%
Opiate mu (OP3, MOP)
  inhibition at 10 µM: 10%
Dopamine D3
  inhibition at 10 µM: 73%
α2A-Adrenergic receptor
  inhibition at 10 µM: 97%
[1]
  inhibition at 10 µM: 99%
[2]
  inhibition at 10 µM: 20%
Tachykinin NK1
  inhibition at 10 µM: 20%
Adenosine A3
  inhibition at 10 µM: 6%
